From US5384260A, “Detection of onset of antiestrogen resistance in breast cancer” (Board of Regents, The University of Texas System, priority 1993, dated 1995)
Where “and” joins values, the source holds several entries; their conditions need not be identical. Identical values can stand only once. Entries after “also recorded” stand apart in the source; their conditions may differ.

Legend:
MCF-7 tumors [1] = test: HPLC quantification of tamoxifen and cis/trans-4-hydroxytamoxifen ratio in MCF-7 tumors from tamoxifen-treated mice (total tumor, nuclear pellet, KCl nuclear extract); format: in vivo; settings: for Mean 4-OH-TAM cis/trans ratio: p < 0.0005
Experimental: In order to examine the relationship between tamoxifen metabolites and tamoxifen resistance, athymic Balb/c nude mice were implanted with human breast cancer tumor cells (MCF-7). Mice were treated daily for 4-6 months with subcutaneous tamoxifen. After tamoxifen resistance developed and tumor progression was observed, mice were sacrificed, and tumors were collected. In addition, tamoxifen-sensitive tumors were collected from mice still responding to tamoxifen therapy.
Quantification of tamoxifen and its metabolites in tumor specimens was performed using photactivation and high performance liquid chromatography (HPLC) analysis. To summarize: Each tumor sample was weighed, spiked with an internal standard, and homogenized. Tissue samples were then extracted with 2% n-butanol in hexane and irradiated with high intensity ultraviolet light (254 nm). […] All solvents were of HPLC grade. Fluorescence of all compounds was measured at a wavelength of 266 nm. […] In some samples, the tumor was first homogenized and then the nuclear pellet obtained by centrifugation. HPLC tamoxifen measurements were made on extracts of the entire tumor specimen or on subcellular fractions including the cytosol or-the total nuclear pellet. In some cases, the nuclear pellet was further extracted in 0.4M KCl to extract primary metabolites bound to estrogen receptor.
The material extracted with KCl includes that bound to estrogen receptor.

human tumor specimens = test: HPLC of tamoxifen and 4-OH-TAM isomers in tumors of tamoxifen-treated patients (Example 2); format: in vivo; settings: for cis versus trans 4-OH-TAM in tumor nuclear pellets: patients with clinically-evident tumor resistance, FIG. 8
Experimental: Quantification of tamoxifen and its metabolites in tumor specimens was performed using photactivation and high performance liquid chromatography (HPLC) analysis. To summarize: Each tumor sample was weighed, spiked with an internal standard, and homogenized. Tissue samples were then extracted with 2% n-butanol in hexane and irradiated with high intensity ultraviolet light (254 nm). Samples were analyzed by HPLC using a C-18 reverse phase column and eluted isocratically with a mobile phase of water (7%) and triethylamine (0.25%) in methanol. All solvents were of HPLC grade. Fluorescence of all compounds was measured at a wavelength of 266 nm. […] In some samples, the tumor was first homogenized and then the nuclear pellet obtained by centrifugation. HPLC tamoxifen measurements were made on extracts of the entire tumor specimen or on subcellular fractions including the cytosol or-the total nuclear pellet. In some cases, the nuclear pellet was further extracted in 0.4M KCl to extract primary metabolites bound to estrogen receptor.
1) identification and measurement of tamoxifen and its metabolites in tumors isolated from tamoxifen-treated patients who are known treatment failures;
There are two tamoxifen-sensitive tumors (L281 and G375) for comparison because patients responding to treatment are not usually biopsied during the responsive phase of their disease.

[2] = HPLC of tamoxifen and metabolites in MCF-7 mouse tumors (Example 3); settings: mouse, mcf-7 tumor, 500 ug/day
From the text: (§1) Human breast tumors from various patients who failed tamoxifen therapy (20 mgs/day>one year) were obtained from the Breast Cancer Tumor Bank. A portion of the tumor was extracted, irradiated and analyzed by Mass Spectrometry (procedure described below). Tumor tissue was also obtained from an in vivo nude mouse model of acquired tamoxifen resistance. MCF-7 human breast tumors were harvested from nude mice after the development of tamoxifen resistance (4-6 months of tamoxifen administration, 500 ug/day). These tissues were frozen at -20° C. until analysis. Frozen tissue samples were weighed, homogenized, and extracted. Briefly, all samples were extracted with 6.0 ml of 2% butanol in hexane, vortexed for 1.0 min, and then centrifuged for 10 min at 1000×g. The organic phase was dried under N2 gas at 37° C. and reconstituted in 200 μl methanol prior to injection. The reconstituted samples were transferred to a Infrasil quartz cuvette (Fisher Scientific), irradiated for one minute with a 15 W Hg vapor lamp and injected onto a HPLC column.
(§2) The HPLC system consisted of a Beckman model 320 gradient liquid chromatograph, two model 110A pumps, and a model 420 controller. The HPLC was equipped with a reverse phase Altex C18 ultrasphere ODS column and a 100 μl injection loop. […] The flow rate of the mobil phase was set at 0.5 ml/min. The fluorescence of photochemically activated compounds was detected with an Applied Biosystems 980 fluorometer with excitation wavelength set at 266 nm. Retention times and peak heights were recorded with a Spectraphysics 4100 integrator.

MCF-7 tumors [3] = test: as above; settings: for Presence in MCF-7 tamoxifen resistant mouse tumor: HPLC, FIG. 13
From the text: as §1, §2

[4] = in vivo; cited from earlier work
[5] = in vitro; cited from earlier work
T47D human breast cell = settings: cited from earlier work
human breast tumors = test: HPLC and mass spectrometry of tamoxifen metabolites in human breast tumors failing tamoxifen (Example 3); format: in vivo; settings: HPLC / EI-MS
From the text: as §1
The HPLC system consisted of a Beckman model 320 gradient liquid chromatograph, two model 110A pumps, and a model 420 controller. The HPLC was equipped with a reverse phase Altex C18 ultrasphere ODS column and a 100 μl injection loop. The mobil phase consisted of 7% H2 O and […] triethylamine in methanol. The flow rate of the mobil phase was set at 0.5 ml/min. The fluorescence of photochemically activated compounds was detected with an Applied Biosystems 980 fluorometer with excitation wavelength set at 266 nm. Retention times and peak heights were recorded with a Spectraphysics 4100 integrator.
Non-irradiated samples were also injected onto the HPLC column and fractions were collected every minute. Fractionations corresponding to the retention times noted for the bisphenol and monophenol tamoxifen were further evaluated using mass-Spectrometry. The mass spectrometric behavior of the mono and bis phenols under electron impact ionization mass-spectrometry (EI-MS) was utilized. HPLC separated samples, in glass vials, were extracted with methanol, injected into glass capillaries and dried. Samples were introduced via a direct insertion probe. Spectra were recorded at 70 eV over the mass range of 70-500 at 10 seconds per decade with a resolution of 1000. The probe was heated in stages to 200° C.

[6] = cited from earlier work
[7] = resistant MCF-7 mouse tumors, N = 10 (N-DES 9, monophenol 8)
[8] = sensitive MCF-7 mouse tumors, N = 6 (bisphenol 5)

Structure (SMILES): CCC(=C(c1ccc(O)cc1)c1ccc(OCCN(C)C)cc1)c1ccccc1 [4-OH-TAM, 4-hydroxytamoxifen]
- Cis/trans 4-OH-TAM ratio, individual tumor (MCF-7 tumors [1]; resistant MCF-7 tumors (N = 16)): 0.86 and 0.812 and 0.442 and 0.929 and 1.019 and 0.777 and 1.073 and 0.49 and 0.724 and 0.868 and 0.59 and 0.73 and 1.16 and 0.76 and 0.932
- cis 4-OH-TAM/trans-4-OH-TAM ratio in KCl-extracted nuclear pellets compared with other fractions (MCF-7 tumors [1]; resistant tumor, FIG. 7): larger in the nuclear pellets extracted with KCl
- C/T-OH-TAM ratio (summary) (MCF-7 tumors [1]; resistant tumors): 0.8-0.9
- Median cis/trans 4-OH-TAM ratio (MCF-7 tumors [1]; resistant tumors): 0.84
- Number of tumors with cis/trans ratio > 0.60 (MCF-7 tumors [1]; resistant tumors): 13/16
- Number of tumors with cis/trans ratio ≤ 0.60 (MCF-7 tumors [1]; resistant tumors): 3/16
- Range of cis/trans 4-OH-TAM ratio (MCF-7 tumors [1]; resistant tumors): 0.442-1.16
- Mean 4-OH-TAM cis/trans ratio (MCF-7 tumors [1]; resistant tumors, SD = 0.196): 0.8141
- cis/trans 4-OH-TAM ratio, resistant compared with sensitive tumors (MCF-7 tumors [1]; resistant vs sensitive): higher cis/trans ratios; also recorded: increase; also recorded: lower in sensitive than in resistant tumors; also recorded: the cis/trans ratio is higher in the resistant tumor
- Cis/trans 4-OH-TAM ratio, individual tumor (MCF-7 tumors [1]; sensitive MCF-7 tumors (N = 16)): 0.575 and 0.588 and 0.472 and 0.56 and 0.645 and 0.428 and 0.446 and 0.4632 and 0.476 and 0.506 and 0.34 and 0.486 and 0.38 and 1.0 and 0.77
- C/T-OH-TAM ratio (summary) (MCF-7 tumors [1]; sensitive tumors): 0.4-0.5
- Median cis/trans 4-OH-TAM ratio (MCF-7 tumors [1]; sensitive tumors): 0.48
- Number of tumors with cis/trans ratio > 0.60 (MCF-7 tumors [1]; sensitive tumors): 3/16
- Number of tumors with cis/trans ratio ≤ 0.60 (MCF-7 tumors [1]; sensitive tumors): 13/16
- Range of cis/trans 4-OH-TAM ratio (MCF-7 tumors [1]; sensitive tumors): 0.34-1.0
- Mean 4-OH-TAM cis/trans ratio (MCF-7 tumors [1]; sensitive tumors, SD = 0.168): 0.5297
- cis versus trans 4-OH-TAM in tumor nuclear pellets (human tumor specimens): greater cis than trans levels
- cis/trans ratios in total tumor extract (human tumor specimens; tamoxifen-resistant patients' tumors, majority): relatively high cis/trans ratios in the total tumor extract
- cis/trans ratios (human tumor specimens; two tumors from tamoxifen-sensitive patients): low cis/trans ratios

Structure (SMILES): CCC(=C(c1ccccc1)c1ccc(OCCNC)cc1)c1ccccc1 [N-desmethyltamoxifen]
- concentration at 4380 h [2]: 135 ng/g
- Tamoxifen and metabolite concentrations, individual animal (MCF-7 tumors [3]; resistant MCF-7 mouse tumors): 19.65 .eta.g/g tissue and 68.12 .eta.g/g tissue and 38.44 .eta.g/g tissue and 135.44 .eta.g/g tissue and 50.27 .eta.g/g tissue and 65.70 .eta.g/g tissue and 127.29 .eta.g/g tissue and 100.43 .eta.g/g tissue
- Tamoxifen and metabolite concentrations, mean (X) (MCF-7 tumors [3]; [7]): 71.28 .eta.g/g tissue
- Tamoxifen and metabolite concentrations, individual animal (MCF-7 tumors [3]; sensitive MCF-7 mouse tumors): 124.70 .eta.g/g tissue and 331.82 .eta.g/g tissue and 534.62 .eta.g/g tissue and 5.95 .eta.g/g tissue and 322.99 .eta.g/g tissue and 359.67 .eta.g/g tissue
- Tamoxifen and metabolite concentrations, mean (X) (MCF-7 tumors [3]; [8]): 279.95 .eta.g/g tissue
- Occurrence in human serum [4]: major metabolite found in human serum

Structure (SMILES): CC/C(=C(\c1ccccc1)c1ccc(O)cc1)c1ccccc1 [Trans-metabolite E]
- Isomerization to cis metabolite E [5]: demonstrated in vitro
- Estrogen agonist activity of metabolite E isomers (T47D human breast cell): weak partial agonist

Structure (SMILES): CCC(=C(c1ccc(O)cc1)c1ccc(O)cc1)c1ccccc1 [bisphenol]
- Presence in MCF-7 tamoxifen resistant mouse tumor (MCF-7 tumors [3]): A very small peak was evident at a retention time similar to bisphenol
- Tamoxifen and metabolite concentrations, individual animal (MCF-7 tumors [3]; resistant MCF-7 mouse tumors): 15.12 .eta.g/g tissue and 18.34 .eta.g/g tissue and 4.26 .eta.g/g tissue and 3.93 .eta.g/g tissue and 32.75 .eta.g/g tissue and 9.77 .eta.g/g tissue and 43.87 .eta.g/g tissue and 52.72 .eta.g/g tissue and 23.38 .eta.g/g tissue
- Tamoxifen and metabolite concentrations, mean (X) (MCF-7 tumors [3]; [7]): 21.33 .eta.g/g tissue
- Tamoxifen and metabolite concentrations, individual animal (MCF-7 tumors [3]; sensitive MCF-7 mouse tumors): 44.27 .eta.g/g tissue and 33.90 .eta.g/g tissue and 39.80 .eta.g/g tissue and 1491.44 .eta.g/g tissue and 352.76 .eta.g/g tissue
- Tamoxifen and metabolite concentrations, mean (X) (MCF-7 tumors [3]; [8]): 392.43 .eta.g/g tissue
- Presence in human breast cancer tissue (human breast tumors): the presence of bisphenol could not be confirmed
- Presence in human breast cancer tissue (human breast tumors; listed as bisphenoltamoxifen): also present in these patients

Structure (SMILES): CC/C(=C(/c1ccc(O)cc1)c1ccc(OCCN(C)C)cc1)c1ccccc1 [cis 4-hydroxytamoxifen]
- cis versus trans 4-OH-TAM in tumor nuclear pellets (human tumor specimens): higher cis 4-OH-TAM in the nuclear pellets

Structure (SMILES): CC/C(=C(/c1ccccc1)c1ccc(O)cc1)c1ccccc1 [cis-metabolite E]
- Estrogen agonist activity of metabolite E isomers (T47D human breast cell): potent estrogen agonist
- Stimulation of T47D human breast cell growth (T47D human breast cell): more potent than bisphenol

Structure (SMILES): CCC(=C(c1ccc(O)cc1)c1ccc(OCCNC)cc1)c1ccccc1 [metabolite Bx]
- Presence in MCF-7 tamoxifen resistant mouse tumor (MCF-7 tumors [3]): noted on the chromatogram
- Presence in human breast cancer tissue (human breast tumors): Peaks were also noted

Structure (SMILES): CCC(=C(c1ccccc1)c1ccc(OCCN)cc1)c1ccccc1 [metabolite Z, didesmethyltamoxifen]
- Presence in human breast cancer tissue (human breast tumors): Peaks were also noted

Structure (SMILES): CCC(=C(c1ccccc1)c1ccc(O)cc1)c1ccccc1 [monophenol]
- concentration at 4380 h [2]: 22 ng/g
- Tamoxifen and metabolite concentrations, individual animal (MCF-7 tumors [3]; resistant MCF-7 mouse tumors): 24.30 .eta.g/g tissue and 9.63 .eta.g/g tissue and 21.99 .eta.g/g tissue and 20.66 .eta.g/g tissue and 232.66 .eta.g/g tissue and 47.82 .eta.g/g tissue and 27.13 .eta.g/g tissue
- Tamoxifen and metabolite concentrations, mean (X) (MCF-7 tumors [3]; [7]): 49.35 .eta.g/g tissue
- Tamoxifen and metabolite concentrations, individual animal (MCF-7 tumors [3]; sensitive MCF-7 mouse tumors): 7.69 .eta.g/g tissue and 109.07 .eta.g/g tissue and 160.99 .eta.g/g tissue and 37.72 .eta.g/g tissue and 265.25 .eta.g/g tissue and 137.93 .eta.g/g tissue
- Tamoxifen and metabolite concentrations, mean (X) (MCF-7 tumors [3]; [8]): 119.78 .eta.g/g tissue
- Presence in dog bile ([6]; dog, in vivo): isolated from the bile of dogs
- Share of radiolabeled compounds present in bile ([6]; dogs): approximately 6%
- Presence in human breast cancer tissue (human breast tumors): confirmed the presence of monophenol
- Presence in human breast cancer tissue (human breast tumors; listed as monophenoltamoxifen): present in tumors isolated from patients who failed tamoxifen therapy

Structure (SMILES): CC/C(=C(\c1ccc(O)cc1)c1ccc(OCCN(C)C)cc1)c1ccccc1 [trans 4-hydroxytamoxifen]
- 40H trans peak height (human tumor specimens; pellet (KCl nuclear extract), nd = not detectable, listed as 40H trans): 1024 and 1194
